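Protocol summary: plate cells (96-well), add compound at 5 concentrations, incubate 48 h, interpolate endpoints linearly. GI50 is the concentration that inhibits growth by half.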 Active and inactive are the calls of the source. Rule as the data show it: active = GI50 up to about 1.1 µM and inactive = higher.
Assays:
Assay in all cases: growth of human tumour cells (NCI), 48 h
SK-OV-3 = test system: SK-OV-3
HOP-62 = test system: HOP-62
MOLT-4 = test system: MOLT-4
NCI-H23 = test system: NCI-H23
IGROV-1 = test system: IGROV-1
A498 = test system: A498
RXF 393 = test system: RXF 393
SNB-75 = test system: SNB-75
HT-29 = test system: HT-29
T47D = test system: T47D
DU-145 = test system: DU-145
SF-268 = test system: SF-268
Hs-578T = test system: Hs-578T
NCI-H226 = test system: NCI-H226
SNB-19 = test system: SNB-19
KM12 = test system: KM12
OVCAR-5 = test system: OVCAR-5
COLO 205 = test system: COLO 205
OVCAR-3 = test system: OVCAR-3
Malme-3M = test system: Malme-3M
NCI-H522 = test system: NCI-H522
U-251 = test system: U-251
K562 = test system: K562
NCI/ADR-RES = test system: NCI/ADR-RES
ACHN = test system: ACHN
MDA-N = test system: MDA-N
OVCAR-4 = test system: OVCAR-4
SF-295 = test system: SF-295
TK-10 = test system: TK-10
LOX IMVI = test system: LOX IMVI
SK-MEL-2 = test system: SK-MEL-2
MCF7 = test system: MCF7
UACC-62 = test system: UACC-62
786-0 = test system: 786-0
HCT-15 = test system: HCT-15
HOP-92 = test system: HOP-92
M14 = test system: M14
NCI-H460 = test system: NCI-H460
SW-620 = test system: SW-620
SF-539 = test system: SF-539
UO-31 = test system: UO-31
MDA-MB-435 = test system: MDA-MB-435
UACC-257 = test system: UACC-257
HCT-116 = test system: HCT-116
PC-3 = test system: PC-3
SR = test system: SR
RPMI-8226 = test system: RPMI-8226
EKVX = test system: EKVX
MDA-MB-231 = test system: MDA-MB-231
SN12C = test system: SN12C
A549 = test system: A549
CAKI-1 = test system: CAKI-1
SK-MEL-5 = test system: SK-MEL-5
SK-MEL-28 = test system: SK-MEL-28
OVCAR-8 = test system: OVCAR-8
HCC 2998 = test system: HCC 2998
CCRF-CEM = test system: CCRF-CEM
HL-60 = test system: HL-60

## O=C(O)c1ccc(C(=O)O)c2c(C(=O)O)ccc(C(=O)O)c12
SK-OV-3
  GI50: > 100 µM (inactive)
HOP-62
  GI50: > 100 µM (inactive)
MOLT-4
  GI50: > 100 µM (inactive)
NCI-H23
  GI50: > 100 µM (inactive)
IGROV-1
  GI50: > 100 µM (inactive)
A498
  GI50: > 100 µM (inactive)
RXF 393
  GI50: > 100 µM (inactive)
SNB-75
  GI50: > 100 µM (inactive)
HT-29
  GI50: > 100 µM (inactive)
T47D
  GI50: > 100 µM (inactive)
DU-145
  GI50: > 100 µM (inactive)
SF-268
  GI50: > 100 µM (inactive)
Hs-578T
  GI50: > 100 µM (inactive)
NCI-H226
  GI50: > 100 µM (inactive)
SNB-19
  GI50: > 100 µM (inactive)
KM12
  GI50: > 100 µM (inactive)
OVCAR-5
  GI50: > 100 µM (inactive)
COLO 205
  GI50: > 100 µM (inactive)
OVCAR-3
  GI50: > 100 µM (inactive)
Malme-3M
  GI50: > 100 µM (inactive)
NCI-H522
  GI50: > 100 µM (inactive)
U-251
  GI50: > 100 µM (inactive)
K562
  GI50: > 100 µM (inactive)
NCI/ADR-RES
  GI50: > 100 µM (inactive)
ACHN
  GI50: > 100 µM (inactive)
MDA-N
  GI50: > 100 µM (inactive)
OVCAR-4
  GI50: > 100 µM (inactive)
SF-295
  GI50: > 100 µM (inactive)
TK-10
  GI50: > 100 µM (inactive)
LOX IMVI
  GI50: > 100 µM (inactive)
SK-MEL-2
  GI50: > 100 µM (inactive)
MCF7
  GI50: > 100 µM (inactive)
UACC-62
  GI50: > 100 µM (inactive)
786-0
  GI50: > 100 µM (inactive)
HCT-15
  GI50: > 100 µM
HOP-92
  GI50: > 100 µM (inactive)
M14
  GI50: > 100 µM (inactive)
NCI-H460
  GI50: > 100 µM (inactive)
SW-620
  GI50: > 100 µM (inactive)
SF-539
  GI50: > 100 µM (inactive)
UO-31
  GI50: > 100 µM (inactive)
MDA-MB-435
  GI50: > 100 µM (inactive)
UACC-257
  GI50: > 100 µM (inactive)
HCT-116
  GI50: > 100 µM (inactive)
PC-3
  GI50: > 100 µM (inactive)
SR
  GI50: > 100 µM (inactive)
RPMI-8226
  GI50: > 100 µM (inactive)
EKVX
  GI50: > 100 µM (inactive)
MDA-MB-231
  GI50: > 100 µM (inactive)
SN12C
  GI50: > 100 µM (inactive)
A549
  GI50: > 100 µM (inactive)
CAKI-1
  GI50: > 100 µM (inactive)
SK-MEL-5
  GI50: > 100 µM (inactive)
SK-MEL-28
  GI50: > 100 µM (inactive)
OVCAR-8
  GI50: > 100 µM (inactive)

## N=C(N)SCCC(=O)CCSC(=N)N
SK-OV-3
  GI50: > 100 µM (inactive)
MOLT-4
  GI50: 99.5 µM (inactive)
NCI-H23
  GI50: > 100 µM (inactive)
A498
  GI50: 5.5 µM (inactive)
RXF 393
  GI50: > 100 µM (inactive)
SNB-75
  GI50: > 100 µM (inactive)
HT-29
  GI50: > 100 µM (inactive)
T47D
  GI50: > 100 µM (inactive)
DU-145
  GI50: > 100 µM (inactive)
SF-268
  GI50: > 100 µM (inactive)
Hs-578T
  GI50: > 100 µM (inactive)
NCI-H226
  GI50: > 100 µM (inactive)
SNB-19
  GI50: > 100 µM (inactive)
KM12
  GI50: 70.3 µM (inactive)
COLO 205
  GI50: > 100 µM (inactive)
OVCAR-3
  GI50: > 100 µM (inactive)
NCI-H522
  GI50: > 100 µM (inactive)
U-251
  GI50: > 100 µM (inactive)
K562
  GI50: 99.5 µM (inactive)
HCC 2998
  GI50: > 100 µM (inactive)
NCI/ADR-RES
  GI50: 91.2 µM (inactive)
ACHN
  GI50: > 100 µM (inactive)
MDA-N
  GI50: > 100 µM (inactive)
OVCAR-4
  GI50: > 100 µM (inactive)
SF-295
  GI50: > 100 µM (inactive)
TK-10
  GI50: > 100 µM (inactive)
LOX IMVI
  GI50: > 100 µM (inactive)
MCF7
  GI50: > 100 µM (inactive)
HCT-15
  GI50: > 100 µM
HOP-92
  GI50: > 100 µM (inactive)
M14
  GI50: > 100 µM (inactive)
NCI-H460
  GI50: > 100 µM (inactive)
SW-620
  GI50: > 100 µM (inactive)
UO-31
  GI50: > 100 µM (inactive)
MDA-MB-435
  GI50: > 100 µM (inactive)
CCRF-CEM
  GI50: > 100 µM (inactive)
UACC-257
  GI50: 36 µM (inactive)
HL-60
  GI50: > 100 µM (inactive)
HCT-116
  GI50: > 100 µM (inactive)
PC-3
  GI50: > 100 µM (inactive)
SR
  GI50: > 100 µM (inactive)
MDA-MB-231
  GI50: > 100 µM (inactive)
SN12C
  GI50: > 100 µM (inactive)
A549
  GI50: > 100 µM (inactive)
SK-MEL-5
  GI50: > 100 µM (inactive)
SK-MEL-28
  GI50: > 100 µM (inactive)
OVCAR-8
  GI50: > 100 µM (inactive)

## CCCCCCCCCCCCCCCCNc1nc(=O)n(C2CC(O)C(COP(=O)(O)OC3CC(n4cc(F)c(=O)[nH]c4=O)OC3CO)O2)cc1F (stereo not drawn)
SK-OV-3
  GI50: 11.6 µM (inactive)
HOP-62
  GI50: < 0.0296 µM (active)
MOLT-4
  GI50: 1.95 µM (inactive)
NCI-H23
  GI50: 0.44 µM (active)
IGROV-1
  GI50: 1.95 µM (inactive)
A498
  GI50: 0.09 µM (active)
RXF 393
  GI50: 6.97 µM (inactive)
SNB-75
  GI50: 4.98 µM (inactive)
HT-29
  GI50: 1.87 µM (inactive)
T47D
  GI50: 6.68 µM (inactive)
DU-145
  GI50: 0.222 µM (active)
SF-268
  GI50: < 0.0218 µM (active)
Hs-578T
  GI50: 15.6 µM (inactive)
NCI-H226
  GI50: 9.51 µM (inactive)
SNB-19
  GI50: 0.27 µM (active)
KM12
  GI50: 20.7 µM (inactive)
OVCAR-5
  GI50: 29.7 µM (inactive)
COLO 205
  GI50: 10.9 µM (inactive)
OVCAR-3
  GI50: 10 µM (inactive)
Malme-3M
  GI50: 12.1 µM (inactive)
NCI-H522
  GI50: 8.75 µM (inactive)
U-251
  GI50: 1.66 µM (inactive)
K562
  GI50: 1.41 µM (inactive)
HCC 2998
  GI50: < 0.01 µM (active)
NCI/ADR-RES
  GI50: 0.634 µM (active)
ACHN
  GI50: 0.0234 µM (active)
MDA-N
  GI50: 19.4 µM (inactive)
OVCAR-4
  GI50: 92.3 µM (inactive)
TK-10
  GI50: 25.7 µM (inactive)
LOX IMVI
  GI50: 0.0637 µM (active)
SK-MEL-2
  GI50: 30.1 µM (inactive)
MCF7
  GI50: < 0.01 µM (active)
UACC-62
  GI50: 0.337 µM (active)
786-0
  GI50: 0.416 µM (active)
HCT-15
  GI50: 3.18 µM
HOP-92
  GI50: 4.38 µM (inactive)
M14
  GI50: 0.687 µM (active)
SW-620
  GI50: 32.1 µM (inactive)
SF-539
  GI50: < 0.0108 µM (active)
UO-31
  GI50: 0.257 µM (active)
MDA-MB-435
  GI50: 13.1 µM (inactive)
CCRF-CEM
  GI50: < 0.0122 µM (active)
UACC-257
  GI50: 12.8 µM (inactive)
HL-60
  GI50: 0.328 µM (active)
HCT-116
  GI50: 0.504 µM (active)
PC-3
  GI50: 6.35 µM (inactive)
SR
  GI50: < 0.0243 µM (active)
RPMI-8226
  GI50: 0.0822 µM (active)
EKVX
  GI50: 26.4 µM (inactive)
MDA-MB-231
  GI50: 28.4 µM (inactive)
SN12C
  GI50: 0.264 µM (active)
A549
  GI50: 0.0333 µM (active)
CAKI-1
  GI50: 0.258 µM (active)
SK-MEL-5
  GI50: 0.571 µM (active)
SK-MEL-28
  GI50: 14.2 µM (inactive)
OVCAR-8
  GI50: 0.296 µM (active)
